Results published in patent US20230172944A1, “ROCK INHIBITORS FOR USE IN TREATING OR PREVENTING PULMONARY EDEMA” (ATRIVA THERAPEUTICS GMBH, priority 2020, published 2023).

Columns and labels:
[1] = test system: IAV A/Puerto Rico/8/32 (H1N1); assay: Lung histology (Hematoxilin/Eosin) and nuclear count quantification of infiltrates; format: in vivo; conditions: 10 mg/kg 1×daily for 6 days, 5 mice, 7th day p.i., Aperio nuclear count
[2] = test system: IAV A/Puerto Rico/8/32 (H1N1); assay: Virus titer of lung homogenizates (foci assay); format: in vivo, mice; conditions: 10 mg/kg 1×daily for 6 days, 500 PFU/mouse, 7th day p.i., n=3
Description: PR8: Virus titer of lung homogenizates from mice infected with IAV A/Puerto Rico/8/32 (H1N1, 500 PFU/Mouse) were infected (7th day p.i.).
For the foci forming assay, MDCK II cells were seeded in 96-well plates at a concentration of 3×10^6 cells/plate. The next day, 10-fold dilutions in duplicates (from 10^−1 to 10^−8) in PBS+/+/BA/PS was prepared from each virus sample in U-shaped 96-well. Importantly, during the preparation of the dilutions the pipet tips were changed after each dilution step. The MDCK II cells in the 96-well plate(s) were washed once with PBS+/+. […] 1 hour later, cells again were washed with 400 μl of washing buffer and 40 μl 3-Amino-9-ethylcarbazole (AEC)-staining buffer (1×AEC diluted N—N-dimethylformamide in acetate buffer (50 mM ammonium acetate, 8.8 mM H202) were added to each well. Following incubation for 30 min at 37° C. until foci could be detected, the staining buffer was removed and cells were washed twice with dH2O. Air-dried plates were scanned by using the Epson Perfection V500 Photo scan (Epson) at 1200 dpi and total number of foci was determined per well. Since Avicel-medium has a high viscosity that prevents diffusion of virus particles in surrounding media, virus can spread only from one cell to other forming foci. […]

[3] = test system: IAV A/Puerto Rico/8/32 (H1N1); assay: Body weight of infected mice; format: in vivo, C57BL/6 mice; conditions: 10 mg/kg 1×daily in saline solution, 500 PFU/mouse, 7 days
Description: PR8: Body weight of mice infected with IAV A/Puerto Rico/8/32 (H1N1, 500 PFU/mouse). […] The experiment was planned for 7 days only. Afterwards the mice were euthanized for ethical reasons.
All animal experiments were performed according to the latest guidelines of the “Federation of European Laboratory Animal Science Associations (FELASA)” and approved by the local committee of the Max-Planck Laboratory for Heart & Lung Research Instituto de Investigación en Biomedicina de Buenos Aires (IBioBA). Six-week-old BALB/c mice (n=5 per group) were infected by intra-tracheal inoculation of 500 plaque-forming units (pfu)/mouse of PR8 in a volume of 30 μl. […] As a control IP injection of sterile PBS −/− were applied. Body weight was monitored every day until day 8 p.i.. On the day 7 after treatment start (=day 8 p.i.) mice were sacrificed by an overdose of isoflurane.

[4] = test system: polarized Calu3 cells infected with influenza virus A/Puerto Rico/8/34 (H1N1); assay: Vectorial water transport (FITC-dextran) over polarized Calu3 cells; format: cell-based, human
[5] = test system: Calu3 cells infected with influenza virus A/Puerto Rico/8/34; assay: Coomassie staining of confluent polarized Calu3 cells (virus-induced epithelial cell damage); format: cell-based; conditions: 5 μM, MOI=5, Coomassie 24 h p.i.
[6] = test system: Calu3 cells infected with influenza virus A/Puerto Rico/8/34 (H1N1); assay: Antibody staining and confocal laser-scanning microscopy of apical NKA localization; format: cell-based, human; conditions: PR8-infected Calu3 cells treated with ROCK inhibitor, 20 h p.i.
Description: In order to obtain highly polarized Calu3 cells, the cell monolayer in a 175 cm^2 tissue culture flask grown to 50% confluence was washed once with PBS −/− and treated with Trypsin-EDTA. Cells were resuspended in 10 ml culture medium and centrifuged for 15 min at 300×g, 24° C. Supernatant was discarded and cells were resuspended in 5 ml of culture medium. 30 μl of cell suspension were mixed with 30 μl of 0.4% trypan blue dye and cell concentration was calculated in Neubauer chamber according manufacturer's instruction. Cells were dilute to a concentration of 2×10^6 viable cells/ml in Calu3 culture medium and 250 μl/125 μl of the cell suspension containing 0.5×10^6/0.25×10^6 viable cells were placed to the apical compartment of each Transwells® insert in a 12/24 well plate. 1/0.3 ml of Calu-3 culture medium was added into the basolateral compartments, avoiding the introduction of air bubbles and cells were cultivated at 37° C., 5% CO2. For the cells grown under the Liquid-Liquid Interface (LLI) condition, medium was replaced in both compartments each second day. For Air-Liquid Interface (ALI), culture medium was aspirated from the apical compartment on the day two, whereas medium was replaced every 2 days in the basolateral compartments.
For immunofluorescence assay cells were washed ones with PBS+/+ and fixed with or without extra permeabilization at the indicated time points. […]

[7] = test system: Calu3 cells

SMILES	number of infiltrates (quantification, total cell count/mm2) [1]	virus titer in the lungs of infected mice [2]	body weight loss of infected mice [3]	vectorial water transport (VWT) [4]	virus-induced epithelial cell damage (cytopathic effect) [5]	apical sodium-potassium-ATPase (NKA) localization [6]	cell viability of infected Calu3 cells [7]	cell viability of non-infected Calu3 cells ([7]; 5 μM, 0, 6, 16, 24 hours, mock set to 100%)
Cl.O=S(=O)(c1cccc2cnccc12)N1CCCNCC1 [Fasudil HCl, Isoquinoline 5-[(hexahydro-1H-1,4-diazepin-1-yl)sulfonyl]-N-(5-Isoquinolinesulfonyl)-1,4-per-hydrodiazepine]	reduces the number of infiltrates	reduces the virus titer in the lungs of infected mice	tendential reduction of the body weight loss					
O=C(NCc1cccc(O)c1)Nc1nc(-c2ccncc2)cs1 [Rho XIII, 1-(3-Hydroxybenzyl)-3-(4-(pyridin-4-yl)thiazol-2-yl)urea]				improves vectorial water transport	reduces virus-induced epithelial cell damage in vitro	prevents apical sodium-potassium-ATPase (NKA) localization	increases cell viability	increases cell viability
